Patent publication US7208506B2, “Heteroarylethenyl derivatives, their manufacture and use as pharmaceutical agents” (Hoffmann-La Roche Inc., priority 2005, dated 2007)
Counter-ions that a name gives are not always drawn.

Tested on: HCT 116 cells
Assay: CellTiter-Glo Luminescent Cell Viability Assay in HCT 116 cells
Assay type: cell-based
Conditions: Homo sapiens, HCT-116, 120 h, HCT 116 human colon carcinoma cell viability, 120 h (5 days) incubation, 10 concentrations 30 μM to 0.0015 μM, triplicate
From the text: CellTiter-Glo™ Assay in HCT 116 Cells
The CellTiter-Glo™ Luminescent Cell Viability Assay (Promega) is a homogeneous method of determining the number of viable cells in culture based on quantitation of the ATP present, which signals the presence of metabolically active cells.
HCT 116 cells (human colon carcinoma, ATCC-No. CCl1-247) were cultivated in RPMI 1640 medium with GlutaMAX™ I (Invitrogen, Cat-No. 61870-010), 2.5% Fetal Calf Serum (FCS, Sigma Cat-No. F4135 (FBS)); 100 Units/ml penicillin/100 μg/ml streptomycin (=Pen/Strep from Invitrogen Cat. No. 15140). For the assay the cells were seeded in 384 well plates, 1000 cells per well, in the same medium. The next day the test compounds were added in various concentrations ranging from 30 μM to 0.0015 μM (10 concentrations, 1:3 diluted). After 5 days the CellTiter-Glo™ assay was done according to the instructions of the manufacturer (CellTiter-Glo™ Luminescent Cell Viability Assay, from Promega). In brief: the cell-plate was equilibrated to room temperature for approximately 30 minutes and than the CellTiter-Glo™ reagent was added. The contents were carefully mixed for 15 minutes to induce cell lysis. After 45 minutes the luminescent signal was measured in Victor 2, (scanning multiwell spectrophotometer, Wallac).
Medium: RPMI 1640 with GlutaMAX™ I (Invitrogen, Cat-Nr. 61870), 5% FCS (Sigma Cat.-No. F4135), Pen/Strep (Invitrogen, Cat No. 15140).
HCT116 (ATCC-No. CCl-247): 1000 cells in 60 μl per well of 384 well plate (Greiner 781098, μClear-plate white)
After seeding incubate plates 24 h at 37° C., 5% CO2
2nd. Day: Induction (Treatment with Compounds, 10 Concentrations):
In order to achieve a final concentration of 30 μM as highest concentration 3,5 μl of 10 mM compound stock solution were added directly to 163 μl media. Then step e) of the dilution procedure described below, was followed.
In order to achieve the second highest to the lowest concentrations, a serial dilution with dilution steps of 1:3 was followed according to the procedure (a–e) as described here below: • a) for the second highest concentration add 10 μl of 10 mM stock solution of compound to 20 μl dimethylsulfoxide (DMSO) • b) dilute 8×1:3 (always 10 μl to 20 μl DMSO) in this DMSO dilution row (results in 9 wells with concentrations from 3333.3 μM to 0.51 μM) • c) dilute each concentration 1: 47.6 (3.5 μl compound dilution to 163 μl media) • e) add 10 μl of every concentration to 60 μl media in the cell plate resulting in final concentration of DMSO : 0.3% in every well and resulting in 10 final concentration of compounds ranging from 30 μM to 0.0015 μM. • Each compound is tested in triplicate. • Incubate 120 h (5 days) at 37° C., 5% CO2
Analysis: • Add 30 μl CellTiter-Glo™ Reagent per well, • shake 15 minutes at room temperature • incubate further 45 minutes at room temperature without shaking
Measurement: • Victor 2 scanning multiwell spectrophotometer (Wallac), Luminescence mode (0.5 sec/read, 477 nm) • Determine IC50 using a non-linear curve fit (XLfit software (ID Business Solution Ltd., Guilford, Surrey, UK))

SMILES | IC50 [µM]
O=C(NS(=O)(=O)/C=C/c1ccsc1)c1ccc(F)cc1Cl [Example 1-3, (E)-2-Thiophen-3-yl-ethenesulfonic acid 2-chloro-4-fluoro-benzoylamide; sodium salt] | 0.5 to 15
Cc1ccc(/C=C/S(=O)(=O)NC(=O)c2ccc(Cl)cc2Cl)s1 [Example 1-8, (E)-2-(5-Methyl-thiophen-2-yl)-ethenesulfonic acid 2,4-dichloro-benzoylamide] | 0.5 to 15
O=C(NS(=O)(=O)/C=C/c1csc2ccccc12)c1ccc(F)cc1C(F)(F)F [Example 2-28, (E)-2-Benzo[b]thiophen-3-yl-ethenesulfonic acid 4-fluoro-2-trifluoromethyl-benzoylamide; sodium salt] | 0.5 to 15
COc1ccc(/C=C/S(=O)(=O)NC(=O)c2ccc(F)cc2Cl)cn1 [Example 2-10, (E)-2-(6-Methoxy-pyridin-3-yl)-ethenesulfonic acid 2-chloro-4-fluoro-benzoylamide; sodium salt] | 0.5 to 15
O=C(NS(=O)(=O)/C=C/c1ccccn1)c1ccc(F)cc1Cl [Example 2-6, (E)-2-Pyridin-2-yl-ethenesulfonic acid 2-chloro-4-fluoro-benzoylamide; sodium salt] | 0.5 to 15
Cc1ccsc1/C=C/S(=O)(=O)NC(=O)c1ccc(Cl)cc1Cl [Example 1-9, (E)-2-(3-Methyl-thiophen-2-yl)-ethenesulfonic acid 2,4-dichloro-benzoylamide] | 0.5 to 15
O=C(NS(=O)(=O)/C=C/c1cccnc1)c1ccc(Cl)cc1Cl [Example 2-1, (E)-2-Pyridin-3-yl-ethenesulfonic acid 2,4-dichloro-benzoylamide; sodium salt] | 3.41
O=C(NS(=O)(=O)/C=C/c1ccc(Cl)nc1)c1ccc(Cl)cc1Cl [Example 2-20, (E)-2-(6-Chloro-pyridin-3-yl)-ethenesulfonic acid 2,4-dichloro-benzoylamide; sodium salt] | 0.5 to 15
O=C(NS(=O)(=O)/C=C/c1cccnc1)c1ccc(F)cc1C(F)(F)F [Example 2-9, (E)-2-Pyridin-3-yl-ethenesulfonic acid 4-fluoro-2-trifluoromethyl-benzoylamide; sodium salt] | 0.5 to 15
Cc1noc(C)c1/C=C/S(=O)(=O)NC(=O)c1ccc(Cl)cc1Cl [Example 1-11, (E)-2-(3,5-Dimethyl-isoxazol-4-yl)-ethenesulfonic acid 2,4-dichloro-benzoylamide; sodium salt] | 0.5 to 15
O=C(NS(=O)(=O)/C=C/c1csc2ccccc12)c1ccc(C(F)(F)F)cc1C(F)(F)F [Example 2-29, (E)-2-Benzo[b]thiophen-3-yl-ethenesulfonic acid 2,4-ditrifluoromethyl-benzoylamide; sodium salt] | 0.5 to 15
O=C(NS(=O)(=O)/C=C/c1ccccn1)c1ccc(F)cc1C(F)(F)F [Example 2-7, (E)-2-Pyridin-2-yl-ethenesulfonic acid 4-fluoro-2-trifluoromethyl-benzoylamide; sodium salt] | 0.5 to 15
O=C(NS(=O)(=O)/C=C/c1cncnc1)c1ccc(Cl)cc1Cl [Example 2-18, (E)-2-Pyrimidin-5-yl-ethenesulfonic acid 2,4-dichloro-benzoylamide; sodium salt] | 0.5 to 15
O=C(NS(=O)(=O)/C=C/c1sccc1Br)c1ccc(Cl)cc1Cl [Example 2-24, (E)-2-(3-Bromo-thiophen-2-yl)-ethenesulfonic acid 2,4-dichloro-benzoylamide; sodium salt] | 0.5 to 15
O=C(NS(=O)(=O)/C=C/c1ccccn1)c1ccc(Cl)cc1Cl [Example 2-2, (E)-2-Pyridin-2-yl-ethenesulfonic acid 2,4-dichloro-benzoylamide; sodium salt] | 0.5 to 15
COc1ccc(/C=C/S(=O)(=O)NC(=O)c2ccc(Cl)cc2Cl)cn1 [Example 2-4, (E)-2-(6-Methoxy-pyridin-3-yl)-ethenesulfonic acid 2,4-dichloro-benzoylamide; sodium salt] | 5.02
O=C(NS(=O)(=O)/C=C/c1nccs1)c1ccc(Cl)cc1Cl [Example 2-22, (E)-2-Thiazol-2-yl-ethenesulfonic acid 2,4-dichloro-benzoylamide; sodium salt] | 0.5 to 15

Now from value to compound:

IC50 [µM] | SMILES
0.5 to 15 | Cc1ccc(C(=O)NS(=O)(=O)/C=C/c2ccncc2)c(C)c1 [Example 4-17, (E)-2-Pyridin-4-yl-ethenesulfonic acid 2,4-dimethyl-benzoylamide; sodium salt]
0.5 to 15 | Cc1cc(Cl)ccc1C(=O)NS(=O)(=O)/C=C/c1cccnc1 [Example 4-8, (E)-2-Pyridin-3-yl-ethenesulfonic acid 4-chloro-2-methyl-benzoylamide; sodium salt]
0.5 to 15 | O=C(NS(=O)(=O)/C=C/c1csc2ccccc12)c1ccc(F)cc1Br [Example 4-19, (E)-2-Benzo[b]thiophen-3-yl-ethenesulfonic acid 2-bromo-4-fluoro-benzoylamide; sodium salt]
0.5 to 15 | O=C(NS(=O)(=O)/C=C/c1cccnc1)c1ccc(Br)cc1Cl [Example 4-11, (E)-2-Pyridin-3-yl-ethenesulfonic acid 4-bromo-2-chloro-benzoylamide; sodium salt]
0.5 to 15 | Cc1cc(Cl)ccc1C(=O)NS(=O)(=O)/C=C/c1ccccn1 [Example 4-2, (E)-2-Pyridin-2-yl-ethenesulfonic acid 4-chloro-2-methyl-benzoylamide; sodium salt]
0.5 to 15 | Cc1ccc(C(=O)NS(=O)(=O)/C=C/c2cccnc2)c(C)c1 [Example 4-16, (E)-2-Pyridin-3-yl-ethenesulfonic acid 2,4-dimethyl-benzoylamide; sodium salt]
0.5 to 15 | Cc1ccc(C(=O)NS(=O)(=O)/C=C/c2ccsc2)c(Br)c1 [Example 3-7, (E)-2-Thiophen-3-yl-ethenesulfonic acid 2-bromo-4-methyl-benzoylamide; sodium salt]
0.5 to 15 | COc1cc(Cl)ccc1C(=O)NS(=O)(=O)/C=C/c1cccnc1 [Example 4-1, (E)-2-Pyridin-3-yl-ethenesulfonic acid 4-chloro-2-methoxy-benzoylamide; sodium salt]
0.5 to 15 | Cc1ccc(C(=O)NS(=O)(=O)/C=C/c2ccsc2)c(C)c1 [Example 3-14, (E)-2-Thiophen-3-yl-ethenesulfonic acid 2,4-dimethyl-benzoylamide; sodium salt]
0.5 to 15 | COc1cc(Cl)ccc1C(=O)NS(=O)(=O)/C=C/c1ccsc1 [Example 3-4, (E)-2-Thiophen-3-yl-ethenesulfonic acid 4-chloro-2-methoxy-benzoylamide; sodium salt]
0.5 to 15 | Cc1cc(Br)ccc1C(=O)NS(=O)(=O)/C=C/c1ccccn1 [Example 4-4, (E)-2-Pyridin-2-yl-ethenesulfonic acid 4-bromo-2-methyl-benzoylamide; sodium salt]
0.5 to 15 | Cc1cc(Cl)ccc1C(=O)NS(=O)(=O)/C=C/c1ccsc1 [Example 3-2, (E)-2-Thiophen-3-yl-ethenesulfonic acid 4-chloro-2-methyl-benzoylamide; sodium salt]
0.5 to 15 | O=C(NS(=O)(=O)/C=C/c1ccsc1)c1ccc(Br)cc1Cl [Example 3-11, (E)-2-Thiophen-3-yl-ethenesulfonic acid 4-bromo-2-chloro-benzoylamide; sodium salt]
